Each structure is given as a SMILES string. In brackets after ≈: the same amount, converted by molar mass.

A short description of data set [1]: Half life in human at 300 mg, po. The conditions noted are these: in vivo.
The nature of data set [2]: Oral bioavailability in human 300 mg. Type of data set: ADME, organism-based. The settings on record: in vivo.
Data set [3] in a line: Tmax in human at 300 mg, po. Type of data set: ADME. The conditions noted are these: in vivo.
Data set [4] is described as follows: Cmax in human at 300 mg, po. Type of data set: ADME. More on the design: dose 300 mg, route oral. The settings on record: in vivo.
Data set [5] in a line: Drug excretion in human urine at 36.6 uCi, po administered as single dose. In kind it is ADME, organism-based. The conditions noted are these: in vivo.
A further data set deals with OATP1B3 (Homo sapiens, UniProt Q9NPD5). Put plainly: Inhibition of OATP1B3 (unknown origin) in HEK293 cells at 100 uM. The conditions noted are these: HEK293 cells expressing OATP1B3. In kind it is cell-based.
Chain of OATP1B3 (Q9NPD5 whole entry): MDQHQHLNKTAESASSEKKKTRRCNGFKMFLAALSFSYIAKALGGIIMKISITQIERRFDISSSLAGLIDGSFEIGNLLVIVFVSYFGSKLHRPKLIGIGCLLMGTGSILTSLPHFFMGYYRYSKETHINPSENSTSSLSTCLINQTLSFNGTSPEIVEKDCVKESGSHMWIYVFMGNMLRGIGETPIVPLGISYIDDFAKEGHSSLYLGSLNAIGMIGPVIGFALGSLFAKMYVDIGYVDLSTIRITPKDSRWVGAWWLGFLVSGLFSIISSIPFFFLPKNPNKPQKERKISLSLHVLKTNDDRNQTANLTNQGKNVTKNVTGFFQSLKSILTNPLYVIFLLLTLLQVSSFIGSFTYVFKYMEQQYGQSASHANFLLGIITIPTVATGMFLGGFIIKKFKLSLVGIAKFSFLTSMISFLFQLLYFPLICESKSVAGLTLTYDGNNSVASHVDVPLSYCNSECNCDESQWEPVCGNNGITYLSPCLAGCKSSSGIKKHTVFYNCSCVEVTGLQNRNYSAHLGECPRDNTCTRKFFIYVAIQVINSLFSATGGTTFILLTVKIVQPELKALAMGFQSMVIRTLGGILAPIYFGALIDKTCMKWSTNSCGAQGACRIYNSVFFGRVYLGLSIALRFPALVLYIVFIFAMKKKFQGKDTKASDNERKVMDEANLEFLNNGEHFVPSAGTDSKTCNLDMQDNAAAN
Data set [6] in a line: Fraction absorbed in human urine at 36.6 uCi, po administered as single dose. The settings on record: in vivo. In kind it is ADME, organism-based.
For the next data set, the target named is OATP1B1 (Homo sapiens, UniProt Q9Y6L6). Kind of data set: Inhibition of OATP1B1 (unknown origin) in HEK293 cells at 100 uM. In kind it is cell-based. The settings on record: HEK293 cells expressing OATP1B1.
Chain of OATP1B1 (Q9Y6L6 whole entry): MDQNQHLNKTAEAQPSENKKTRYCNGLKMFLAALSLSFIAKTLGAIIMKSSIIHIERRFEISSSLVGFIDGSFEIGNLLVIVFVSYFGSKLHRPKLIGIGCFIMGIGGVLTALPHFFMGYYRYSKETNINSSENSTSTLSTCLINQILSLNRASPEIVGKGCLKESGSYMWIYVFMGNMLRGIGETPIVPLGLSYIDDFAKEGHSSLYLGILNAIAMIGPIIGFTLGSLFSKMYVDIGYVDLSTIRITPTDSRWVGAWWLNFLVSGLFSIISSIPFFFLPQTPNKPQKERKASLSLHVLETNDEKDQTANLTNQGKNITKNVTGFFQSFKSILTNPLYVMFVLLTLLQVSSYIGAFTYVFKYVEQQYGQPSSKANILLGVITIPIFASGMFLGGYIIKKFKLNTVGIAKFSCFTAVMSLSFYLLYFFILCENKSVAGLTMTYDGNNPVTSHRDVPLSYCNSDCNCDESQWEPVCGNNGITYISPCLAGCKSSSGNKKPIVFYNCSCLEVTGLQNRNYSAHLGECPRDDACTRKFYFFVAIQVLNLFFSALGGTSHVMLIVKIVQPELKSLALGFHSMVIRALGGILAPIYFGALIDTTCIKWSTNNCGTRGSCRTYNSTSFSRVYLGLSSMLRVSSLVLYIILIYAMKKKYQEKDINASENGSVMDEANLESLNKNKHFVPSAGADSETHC
A short description of data set [7]: Drug excretion in human feces at 36.6 uCi, po administered as single dose. In kind it is ADME, organism-based. The settings on record: in vivo.
Another data set concerns the target OAT1 (SLC22A6) (Homo sapiens, UniProt Q4U2R8). Put plainly: Inhibition of human OAT1 expressed in HEK293 cells at 25 uM. In kind it is cell-based.
Data set [8] can be described thus: Induction of CYP2C19 mRNA level in human primary hepatocytes at 1 to 100 uM after 24 to 48 hrs relative to control. Type of data set: ADME, cell-based, Hepatocyte.
Data set [9] is described as follows: Induction of CYP2A6 mRNA level in human primary hepatocytes at 1 to 100 uM after 24 to 48 hrs relative to control. Type of data set: ADME, cell-based, Hepatocyte.
The subject of another data set is Proteus sp. Kind of data set: Antibacterial activity against Proteus sp. Type of data set: functional. The settings on record: Proteus sp. (in: enterobacteria).
For data set [10], the system named is Haemophilus influenzae. Kind of data set: Antibacterial activity against Haemophilus influenzae PBS981 infected in CD-1 mouse assessed as reduction in bacterial load in lungs administered intravenously as single dose after 2 hrs of infection measured after 24 hrs post treatment. In kind it is functional. The settings on record: PBS981, iv.
The subject of a further data set is Shigella sp. Kind of data set: Antibacterial activity against Shigella sp. In kind it is functional.
The subject of data set [11] is Streptococcus pneumoniae. Kind of data set: Antibacterial activity against Streptococcus pneumoniae PBS1399 infected in mouse assessed as protection against bacterial infection by measuring mouse survival administered intravenously as single dose after 2 hrs of infection measured on day 7. Type of data set: functional. The conditions noted are these: PBS1399, iv, read-out: PD50.

For a further data set, the system named is Clostridium perfringens. Put plainly: Antibacterial activity against Clostridium perfringens. Type of data set: functional.
Another data set relates to Serratia marcescens. Kind of data set: Antibacterial activity against Serratia marcescens. Type of data set: functional.
The subject of data set [12] is Staphylococcus aureus. Put plainly: Antibacterial activity against Staphylococcus aureus USA300. Type of data set: functional.
Data set [13] concerns Clostridioides difficile. Put plainly: Antibacterial activity against Clostridium difficile infected in hamster model assessed as median survival time. Type of data set: functional.
The next data set concerns Moraxella catarrhalis. Kind of data set: Antibacterial activity against Moraxella catarrhalis. Type of data set: functional.
Data set [14] deals with Haemophilus influenzae. Put plainly: […] activity against Haemophilus influenzae assessed as reduction in bacterial load at MIC by time-kill analysis. In kind it is functional.
Data set [15] has as its system Clostridioides difficile. Put plainly: Antibacterial activity against Clostridium difficile by broth microdilution assay. In kind it is functional. On the technique in general: Dilution methods test growth across graded concentrations, often in twofold steps.
Data set [16] can be described thus: Induction of CYP3A4/5 mRNA level in human primary hepatocytes at 1 to 100 uM after 24 to 48 hrs relative to control. Type of data set: ADME, cell-based, Hepatocyte.
The nature of data set [17]: Induction of CYP2C8 mRNA level in human primary hepatocytes at 1 to 100 uM after 24 to 48 hrs relative to control. In kind it is ADME, cell-based, Hepatocyte.
The target of data set [18] is Voltage-gated inwardly rectifying potassium channel KCNH2 (Homo sapiens, UniProt Q12809). Put plainly: Inhibition of human ERG.
Chain of Voltage-gated inwardly rectifying potassium channel KCNH2 (Q12809 whole entry): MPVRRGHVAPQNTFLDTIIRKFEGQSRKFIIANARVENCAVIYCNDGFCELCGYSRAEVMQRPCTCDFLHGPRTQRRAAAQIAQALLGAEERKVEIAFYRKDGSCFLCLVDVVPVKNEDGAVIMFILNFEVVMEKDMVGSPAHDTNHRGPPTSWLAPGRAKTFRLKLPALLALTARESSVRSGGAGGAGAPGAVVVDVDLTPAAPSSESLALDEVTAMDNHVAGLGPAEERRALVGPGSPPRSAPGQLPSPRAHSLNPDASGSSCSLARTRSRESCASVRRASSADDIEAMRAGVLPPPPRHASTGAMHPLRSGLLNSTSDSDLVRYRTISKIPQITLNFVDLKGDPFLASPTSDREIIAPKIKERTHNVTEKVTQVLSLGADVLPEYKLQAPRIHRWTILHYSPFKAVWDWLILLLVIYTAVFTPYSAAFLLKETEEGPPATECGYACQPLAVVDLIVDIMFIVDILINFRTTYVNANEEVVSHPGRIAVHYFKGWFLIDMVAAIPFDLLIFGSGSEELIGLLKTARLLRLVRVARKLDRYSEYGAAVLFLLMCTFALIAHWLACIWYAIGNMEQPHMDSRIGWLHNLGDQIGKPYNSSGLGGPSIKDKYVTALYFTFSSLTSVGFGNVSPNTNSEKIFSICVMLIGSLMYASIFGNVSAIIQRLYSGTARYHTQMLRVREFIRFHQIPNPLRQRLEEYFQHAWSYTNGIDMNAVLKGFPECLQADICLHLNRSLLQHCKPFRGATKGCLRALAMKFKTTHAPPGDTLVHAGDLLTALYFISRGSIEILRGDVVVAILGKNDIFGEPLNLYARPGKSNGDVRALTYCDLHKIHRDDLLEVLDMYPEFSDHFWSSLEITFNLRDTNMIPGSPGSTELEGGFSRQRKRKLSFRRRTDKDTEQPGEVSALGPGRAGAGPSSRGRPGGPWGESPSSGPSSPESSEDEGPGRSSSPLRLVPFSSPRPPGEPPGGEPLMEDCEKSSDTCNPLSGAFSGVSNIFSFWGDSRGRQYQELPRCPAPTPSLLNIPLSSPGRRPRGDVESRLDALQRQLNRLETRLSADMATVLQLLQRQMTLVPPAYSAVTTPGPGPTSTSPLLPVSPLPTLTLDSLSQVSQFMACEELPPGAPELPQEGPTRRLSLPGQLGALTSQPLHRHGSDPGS
Data set [19] relates to Staphylococcus aureus. Put plainly: Antibacterial activity against Staphylococcus aureus USA400. In kind it is functional.
Data set [20] can be described thus: Induction of CYP2J2 mRNA level in human primary hepatocytes at 1 to 100 uM after 24 to 48 hrs relative to control. In kind it is ADME, cell-based, Hepatocyte.
Data set [21] can be described thus: Induction of CYP1A2 mRNA level in human primary hepatocytes at 1 to 100 uM after 24 to 48 hrs relative to control. Type of data set: ADME, cell-based, Hepatocyte.
In a further data set the test system is Bacteroides fragilis. Put plainly: Antibacterial activity against Bacteroides fragilis. In kind it is functional.
Data set [22] deals with Escherichia coli. Put plainly: Antibacterial activity against Escherichia coli. Type of data set: functional.
The nature of data set [23]: Induction of CYP2D6 mRNA level in human primary hepatocytes at 1 to 100 uM after 24 to 48 hrs relative to control. Type of data set: ADME, cell-based, Hepatocyte.
Data set [24] in a line: Induction of CYP2B6 mRNA level in human primary hepatocytes at 1 to 100 uM after 24 to 48 hrs relative to control. Type of data set: ADME, cell-based, Hepatocyte.
Data set [25] can be described thus: Induction of CYP1A1 mRNA level in human primary hepatocytes at 1 to 100 uM after 24 to 48 hrs relative to control. In kind it is ADME, cell-based, Hepatocyte.
The subject of data set [26] is Haemophilus influenzae. Put plainly: Antibacterial activity against Haemophilus influenzae by microdilution broth assay. In kind it is functional.
Data set [27] has as its system Haemophilus influenzae. Kind of data set: Antibacterial activity against Haemophilus influenzae. In kind it is functional.
A further data set deals with Klebsiella aerogenes. Put plainly: Antibacterial activity against Enterobacter aerogenes. In kind it is functional.
Data set [28] is described as follows: Induction of CYP2C9 mRNA level in human primary hepatocytes at 1 to 100 uM after 24 to 48 hrs relative to control. In kind it is ADME, cell-based, Hepatocyte.
For data set [29], the system named is Staphylococcus aureus. Put plainly: Antibacterial activity against Staphylococcus aureus USA300 in mouse thigh wound infection model assessed as reduction in bacterial load administered intravenously as single dose after 2 hrs of infection measured after 24 hrs post treatment. In kind it is functional. The settings on record: USA300, iv.
Data set [30] in a line: Metabolic stability in human microsomes at 4.8 uM after 30 mins. In kind it is ADME, Microsome. The settings on record: read-out: Stability.
For data set [31], the system named is Escherichia coli. Put plainly: Antibacterial activity against Escherichia coli by microdilution broth assay. Type of data set: functional.
The nature of data set [32]: Metabolic stability in human hepatocytes at 48 uM up to 24 hrs. In kind it is ADME, cell-based, Hepatocyte. The settings on record: read-out: Stability.
The next data set relates to Pseudomonas aeruginosa. Kind of data set: Antibacterial activity against Pseudomonas aeruginosa. In kind it is functional.
The test system of a further data set is Salmonella sp. Kind of data set: Antibacterial activity against Salmonella sp. Type of data set: functional.
Another data set has as its system Klebsiella pneumoniae. Put plainly: Antibacterial activity against Klebsiella pneumoniae by microdilution broth assay. In kind it is functional.
For data set [33], the system named is Clostridioides difficile. Put plainly: Antibacterial activity against Clostridium difficile by agar microdilution assay. Type of data set: functional.
Data set [34] relates to Haemophilus influenzae. Put plainly: Antibacterial activity against Haemophilus influenzae PBS981. In kind it is functional.
The subject of data set [35] is Stenotrophomonas maltophilia. Kind of data set: Antibacterial activity against Stenotrophomonas maltophilia. Type of data set: functional.
Data set [36] is described as follows: Induction of CYP1B1 mRNA level in human primary hepatocytes at 1 to 100 uM after 24 to 48 hrs relative to control. Type of data set: ADME, cell-based, Hepatocyte.
A further data set deals with Enterobacter cloacae. Kind of data set: Antibacterial activity against Enterobacter cloacae. In kind it is functional.
For a further data set, the system named is Providencia sp. Kind of data set: Antibacterial activity against Providencia sp. Type of data set: functional.
In data set [37] the test system is Streptococcus pneumoniae. Put plainly: Antibacterial activity against Streptococcus pneumoniae PBS1399. Type of data set: functional.
Data set [38] relates to Staphylococcus aureus. Kind of data set: Antibacterial activity against Staphylococcus aureus USA400 in mouse thigh wound infection model assessed as reduction in bacterial load administered intravenously as single dose after 2 hrs of infection measured after 24 hrs post treatment. The settings on record: USA400, iv. In kind it is functional.
Data set [39] is described as follows: Induction of CYP2E1 mRNA level in human primary hepatocytes at 1 to 100 uM after 24 to 48 hrs relative to control. Type of data set: ADME, cell-based, Hepatocyte.

Chain of OAT1 (SLC22A6) (Q4U2R8 whole entry): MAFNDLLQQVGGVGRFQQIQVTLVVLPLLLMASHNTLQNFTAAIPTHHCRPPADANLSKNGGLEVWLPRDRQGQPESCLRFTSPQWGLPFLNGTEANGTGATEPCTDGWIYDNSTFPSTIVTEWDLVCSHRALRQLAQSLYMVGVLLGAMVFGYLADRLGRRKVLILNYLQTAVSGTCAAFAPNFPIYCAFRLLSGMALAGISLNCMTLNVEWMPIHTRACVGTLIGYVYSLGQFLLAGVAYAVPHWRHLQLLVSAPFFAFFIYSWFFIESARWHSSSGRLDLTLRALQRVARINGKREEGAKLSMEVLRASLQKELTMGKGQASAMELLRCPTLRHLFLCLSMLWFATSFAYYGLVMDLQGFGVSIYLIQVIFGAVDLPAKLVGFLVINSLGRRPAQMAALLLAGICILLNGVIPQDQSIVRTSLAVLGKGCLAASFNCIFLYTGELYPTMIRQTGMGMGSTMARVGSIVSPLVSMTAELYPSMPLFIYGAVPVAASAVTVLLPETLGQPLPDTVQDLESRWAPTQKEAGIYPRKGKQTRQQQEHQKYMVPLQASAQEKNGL

Broadly, the half-life is how long it takes for the measured level to halve. Low values mean rapid decline, high ones slow decline. A word on the bioavailability: it is the share of a dose that reaches the circulation, judged against a reference dose that is usually intravenous. Low readings indicate poor availability, high ones good availability. As usually defined, the Tmax is the time at which the peak concentration occurs. By Cmax is commonly meant the highest concentration seen after dosing. In turn, `CN(C)c1cc(CNCC(C)(C)C)c(O)c2c1C[C@H]1C[C@H]3[C@H](N(C)C)C(O)=C(C(N)=O)C(=O)[C@@]3(O)C(O)=C1C2=O.Cc1ccc(S(=O)(=O)O)cc1` [OMADACYCLINE TOSYLATE] had a half-life in [1] of 17 h. The compound further yielded a bioavailability in [2] of 34.5%. Also, in data set [3], the Tmax was 3 h. In data set [4], this compound had a Cmax of 0.54 µg/mL.

A word on the inhibition: it is the share of the control response that was lost under treatment. High values mean strong suppression, low ones little suppression. Take `CN(C)c1cc([14CH2]NCC(C)(C)C)c(O)c2c1C[C@H]1C[C@H]3[C@H](N(C)C)C(O)=C(C(N)=O)C(=O)[C@@]3(O)C(O)=C1C2=O`: the Drug excretion in data set [5] was 14.4 %ID; in [7] it was 81.1 %ID. In addition, the inhibition at 100 µM against OATP1B3 and against OATP1B1 was 10.1% each time. In data set [6], this compound yielded a Fabs of 40%. For the same compound, the inhibition at 25 µM against OAT1 (SLC22A6) worked out at 32.1%.

By IC25 is commonly meant the concentration needed for an effect of 25%. Turning to `CN(C)c1cc(CNCC(C)(C)C)c(O)c2c1C[C@H]1C[C@H]3[C@H](N(C)C)C(O)=C(C(N)=O)C(=O)[C@@]3(O)C(O)=C1C2=O` [OMADACYCLINE], the Activity in [8] is less than 40%; in data set [9] it was less than 40%; in the data set on Haemophilus influenzae [14] it was “>=3 log10CFU”; in data set [16] it was less than 40%; in data set [17], less than 40%; in [20], less than 40%. The Activity in data set [21], in data set [23], in data set [24], in [25], in [28] and in data set [36] was less than 40% throughout. The Activity in data set [39] is reported as less than 40%. In addition, the MIC90 in the data set with Proteus sp. is greater than 16 mg/L; with Shigella sp., less than 4 mg/L; against Clostridium perfringens, 0.12 to 4 mg/L (≈ 0.216 to 7.19 µM); in the data set with Serratia marcescens it was less than 4 mg/L; against Moraxella catarrhalis, 0.25 mg/L (≈ 0.449 µM); in the data set on Clostridioides difficile [15] it was 0.06 mg/L (≈ 0.108 µM). The MIC90 against Bacteroides fragilis was 0.12 to 4 mg/L (≈ 0.216 to 7.19 µM); with Escherichia coli [22] it was less than 4 mg/L; in the data set on Haemophilus influenzae [26], 2 to 4 mg/L (≈ 3.59 to 7.19 µM); in the data set with Haemophilus influenzae [27] it was 2 mg/L (≈ 3.59 µM); with Klebsiella aerogenes it was less than 4 mg/L; with Escherichia coli [31] it was 2 to 4 mg/L (≈ 3.59 to 7.19 µM). Further, the MIC90 is greater than 16 mg/L against Pseudomonas aeruginosa; less than 4 mg/L against Salmonella sp.; 2 to 4 mg/L (≈ 3.59 to 7.19 µM) in the data set with Klebsiella pneumoniae; 0.12 mg/L (≈ 0.216 µM) in the data set on Clostridioides difficile [33]; less than 4 mg/L in [35]; less than 4 mg/L against Enterobacter cloacae. For the same compound, the MIC90 with Providencia sp. was greater than 16 mg/L. Further, the ED50 in the data set on Haemophilus influenzae [10] was determined as 6.47 mg/kg; in the data set on Streptococcus pneumoniae [11] it was 1.5 mg/kg; with Staphylococcus aureus [29] it was 0.4 mg/kg; with Staphylococcus aureus [38] it was 0.68 mg/kg. In addition, the MIC was determined as 0.25 mg/L (≈ 0.449 µM) in the data set with Staphylococcus aureus [12], 0.5 mg/L (≈ 0.898 µM) in the data set with Staphylococcus aureus [19], 1 mg/L (≈ 1.8 µM) in the data set on Haemophilus influenzae [34] and 0.125 mg/L (≈ 0.225 µM) in the data set with Streptococcus pneumoniae [37]. Moreover, in the data set with Clostridioides difficile [13], the MST was 12 days. Moreover, the IC25 in [18] came out at 166 mg/L (≈ 298 µM). For the same compound, the remaining at 0.5 h, 4.8 µM in data set [30] was greater than 90%. The remaining at 24 h, 48 µM in [32] is greater than 86%.
